Read-outs that look alike come from different tables or passages of the source. Marks after values point to notes of the source that are not given here.
Experiments:
[1] = Intrinsic (maximum) solubility in water at pH 1.5; format: physicochemical; conditions: water at pH 1.5, 25 1° C.; U = Undetectable
Protocol: The pH conditions were chosen to ensure that the solubility of the unionised species was estimated. […] Lea & Febiger/Philadelphia. […] […] The solvent (9.9 mL) was then added to the test tube. […] The test tube was sonicated for 15 minutes and centrifuged for 10 minutes (3000 g at 25° C.). An aliquot was filtered (Minisart 0.45 μm filter, Satorius) and diluted with HPLC mobile phase, then assayed. The tube was stored carefully in a 25° C. water bath after sampling and the remaining suspension was again sonicated and the process repeated 7 times at four hourly intervals. In these assays, standard curves were prepared by directly dissolving the esters in mobile phase. Concentrations for standard curves ranged from 1-50 μg/mL for all compounds. Furthermore, a manual injector (Waters Model U6K) was used (20 μL sample loop) which ensured that 20 μL was consistently injected onto the column and precluded the need for an internal standard.

[2] = Maximum solubility in 2% BSA Krebs-Henseleit buffer (pH 7.4); format: physicochemical; conditions: 25 1° C.
From the text: The intrinsic solubility of diflunisal esters is extremely low (TABLE 2). The more lipophilic the analogue, the higher the solubility of solute under these conditions.

[3] = test system: human platelet rich plasma; assay: Platelet aggregation induced by arachidonic acid; format: cell-based; conditions: compound 600 µM, 37° C., arachidonic acid 200 µM
Protocol: Platelet aggregation studies were carried out using a single channel Lumiaggregometer (Chrono-Log Company, Haverton, Pa.) at 37° C. using human platelet-rich and platelet-poor plasma. Platelet-rich plasma (PRP) with a platelet concentration of […] (measured with a Coulter counter) was prepared by centrifuging 3.8% citrated […] (1:9) at 1,500 rpm using a (Beckman) benchtop centrifuge at room temperature for 15 minutes. Platelet-poor plasma (PPP) was prepared by further centrifuging residual blood from platelet-rich plasma at 3,000 rpm for 30 minutes. Platelet-poor plasma was also confirmed b y Coulter counting for platelet content.
Platelet aggregation studies were preceded by pipetting 0.4 mL platelet-rich plasma into a stirred aggregometer tube and calibrate to 90% of recorder. Platelet-poor plasma was set to calibrate at 10% of recorder. Platelet aggregation was initiated by the addition of a arachidonic acid (Sigma) or ADP (Sigma).
10 mM solutions of each compound (TABLE 6) were prepared in 1 mL of normal saline solution (containing 4% BSA) before use. An aliquot (400 μL) of platelet-rich plasma was pipetted into a stirred aggregometer tube at 37° C. and 30 μL of test sample added simultaneously. This mixture was preincubated for varying period (3 to 45 minutes), then arachidonic acid (AA) was added (final conc.=200 μM) to initiate platelet aggregation. If no aggregation occurred, 20 μM ADP was added to confirm the vitality of the platelets (if the platelets are vital, ADP will induce this AA-test sample-plasma mixture to aggregate). This procedure is necessary to investigate whether the non-aggregation phenomenon is due to drug inhibition or simply due to inviable platelets (unable to respond to AA). The degree of aggregation was measure by calculating the area under the turbidimetric response curve (AUC).

[4] = test system: OH. generated from Fenton's reaction; assay: Luminol-dependent chemiluminescence induced by Fenton's reagent; format: biochemical; parameters: unit of the concentration uncertain; conditions: F: CL induced by Fenton's reagent, n=3
Protocol: CL was measured with a luminometer (Model 1250; LKB Wallac, Finland) and recorded in millivolts (Cheung et al., 1984, supra).
Fenton's reagent (FeSO4 and H2O2) was used as a standard reaction mixture for the generation of OH. (Lai and Piette, 1979, Tetrahedron Lett. 775-778):
Fe^+++H2O2→Fe^++++OH.+OH (1)
The initial reaction mixture consisted of 20 μL of 3.8 mM FeSO4.7H2O, 20 μL of 5 mg/mL luminol (Sigma), and 2 mL of 1 mM phosphate buffer in a 3 mL polystyrene cuvette. Twenty microlitres of 320 mM H2O2 was added to initiate the Fenton's reaction.
A known concentration of the ethanolic (≲1%) aspirin analogue or diflunisal ester's stock solution was added to the 1 mM phosphate buffer to prepare solutions with a final concentration of 50 μM, 250 μM or 500 μM. Twenty microlitres of these test samples was added onto the cuvette which contained the initial reaction mixture. H2O2 was added to induce CL reaction. The luminol-dependent CL response was recorded in mV by a potentiometric recorder.
(§1) CL measurements were always done in triplicate and Student's t-test used to assess the statistical significance of the difference between measurements.

[5] = test system: superoxide generated from xanthine oxidase plus xanthine reaction; assay: Xanthine oxidase plus xanthine-induced chemiluminescence; format: biochemical; parameters: dose or concentration left out as unconfirmed; conditions: X: CL induced by xanthine oxidase plus xanthine
Protocol: To clarify the role of aspirin analogues and diflunisal esters in free radicals scavenging, the Fenton's reagent was replaced by an artificial superoxide generating system in the CL inhibition studies. This cell-free system consisted of 100 μg/mL of xanthine oxidase (Sigma) plus 0.5 μM xanthine (Sigma) (Rosen and Klebanoff, 1976, J Clin Invest 58 50-60; Cheson et al., 1976, J Clin Invest 58 789-796).
as §1

[6] = test system: ischaemic/reperfusion rat livers; assay: Ischaemic/reperfusion injury in rat livers (LDH release, bile production); parameters: species or system Female Sprague-Dawley rats; conditions: for EC50: Rattus norvegicus
Protocol: Female Sprague-Dawley rats (220-250 g) were anaesthetised by interperitoneal injection of pentobarbital sodium (60 mg/kg, Boehringer Ingelhein). […] The bile duct was cannulated with a polyethylene tubing (PE-10, I.D. 0.28 mm; Clay Adams, New Jersey) and bile was collected into pre-weighed microcentrifuge tubes at 70 min intervals (in the middle of experiment and the end of experiment). The portal vein was then cannulated using a 16 G intravenous catheter and the liver was perfused via this cannula with 2% BSA Krebs-Henseleit bicarbonate buffer (pH 7.4) and oxygenated using a membrane oxygenator comprising of silastic tubing and ventilated with carbogen (95% O2/5% CO2). The perfusion system used was recirculating and employed a peristaltic pump (Cole-Parmer, Illinois).
Following a 10 min pre-ischaemia perfusion, the perfusion flow was stopped for 30 min at 37° C. with the liver being kept moist. At the end of this ischaemic phase, a known concentration of the aspirin analogue or diflunisal ester's solution (in 2% BSA Krebs-Henseleit buffer) was added into the perfusate prior to the perfusion being resumed for another 100 min. Outflow fractions were collected up to 140 min. A biochemistry autoanalyzer (Hitachi, model 747; Tokyo, Japan) was employed to determine the level of enzyme (LDH) release.
The degree of ischaemic/reperfusion injury was measured by calculating the area under the LDH release ([…]) versus time curve (AUC). […] The efficacy of each compound is expressed in terms of ED50 which represents the molar dose for 50% reduction of LDH release compared to the control. The comparison of bile production between the first stage of experiment (the first 70 min) and the second stage of experiment (the last 70 min) is also used as index of liver function during an experiment.

[7] = In vitro non-enzymatic hydrolysis in Krebs-Henseleit buffer; format: physicochemical; conditions: pH 7.4, 25° C., n=5
Protocol: These experiments were carried out both in Krebs-Henseleit buffer containing either no protein or 2% w/v BSA (bovine serum albumin, fraction V, Sigma) at pH 7.4 and 25±1° C.
Solutions of the derivatives in Krebs buffer (10 mL) was prepared in siliconised glass tubes. Each solution was sonicated for 5 minutes and centrifuged for 5 minutes (3000 g) at 25° C. to ensure maximum dissolution and to sediment any undissolved precipitate. About 7.5 mL of the supernatant was then transferred to a clean siliconised test tube and a 100 μL aliquot was removed and assayed. […] The rate of non-enzymatic hydrolysis (k) for each derivative was then estimated using the following equation: […]
where C1 is the concentration of the ester at any time (t), and C0 is the concentration of the ester at time zero. The half-life (t½) was determined using the formula: […]

[8] = test system: in-situ perfused rat liver; assay: In-situ rat liver perfusions, hepatic extraction (Example 4); format: in vitro ADME; conditions: protein-free Krebs-Henseleit buffer as perfusate; hepatic extraction=1- hepatic availability (F)
Protocol: The hepatic availability (F) for the O-acyl esters of SA and DF was determined using a once through in-situ perfused rat liver preparation (Mellick and Roberts, 1996, J Pharm Pharmacol 48:738-743). Liver was perfused with protein-free Krebs-Henseleit buffer at 30 mL/min for aspirin analogues and with Krebs-Henseleit buffer containing 2% BSA for diflunisal esters studies. Since the solubilities of the diflunisal esters in protein-free media were very low, 2% BSA were used to help to solubilize these compounds. Briefly, 50 μL of a saturated solution of the particular O-acyl SA or DF in Krebs-Henseleit buffer was injected as a bolus into the portal vein cannula. Perfusate outflow samples have collected via a fraction collector over 3 min. 100 μL of these samples was assayed by HPLC to determine the residual concentration of presented ester and the quantity of phenolic metabolite (SA or DF) collected from the perfused liver. The HPLC assay was a modification of the method used by Owen et al. (1987, J Chrom B Biomed Appl 416 293-302) and Rumble et al. (1981, J Chrom 225 252-260).
The hepatic availability (F) was calculated from the ratio of the area under the first moment curve, i.e., outflow concentration time-time profile to the area under the curve for the salicylate phenolic esters, with the assistance of the Moments Calculator 2.2 program for Macintosh computer developed by Robert Purves (1994, J Pharm Sci 83:202-205).

CCC(=O)Oc1ccc(-c2ccc(F)cc2F)cc1C(=O)O [Compound C3D, n-propionyldiflunisal]
Maximum solubility [1]: 0.01 mM | Maximum solubility [2]: 10.29 mM | Maximum solubility ([2]; mean standard deviation (n=3)): 3150 ± 20 µg/mL | Platelet Aggregation (% of control) ([3]; preincubation 3 minutes): 96.5 ± 3.1 % of control | Platelet Aggregation (% of control) ([3]; preincubation 5 minutes): 89.3 ± 0.4 % of control | Platelet Aggregation (% of control) ([3]; preincubation 8 minutes): 67.3 ± 0.1 % of control | Platelet Aggregation (% of control) ([3]; preincubation 10 minutes): 49.7 ± 1.1 % of control | Platelet Aggregation (% of control) ([3]; preincubation 12 minutes): 19.3 ± 0.5 % of control | Platelet Aggregation (% of control) ([3]; preincubation 15 minutes): 0 % of control | Platelet Aggregation (% of control) ([3]; preincubation 20 minutes): 0 % of control | Platelet Aggregation (% of control) ([3]; preincubation 25 minutes): 0 % of control | Platelet Aggregation (% of control) ([3]; preincubation 45 minutes): 0 % of control

CCCCCCC(=O)Oc1ccc(-c2ccc(F)cc2F)cc1C(=O)O [Compound C7D, n-heptanoyldiflunisal]
Platelet Aggregation (% of control) ([3]; preincubation 3 minutes): 97.5 ± 0.9 % of control | Platelet Aggregation (% of control) ([3]; preincubation 5 minutes): 96.3 ± 1.1 % of control | Platelet Aggregation (% of control) ([3]; preincubation 8 minutes): 91.4 ± 0.1 % of control | Platelet Aggregation (% of control) ([3]; preincubation 10 minutes): 91.1 ± 2.1 % of control | Platelet Aggregation (% of control) ([3]; preincubation 12 minutes): 90.8 ± 0.8 % of control | Platelet Aggregation (% of control) ([3]; preincubation 15 minutes): 89.7 ± 2.1 % of control | Platelet Aggregation (% of control) ([3]; preincubation 20 minutes): 77.3 ± 3.1 % of control | Platelet Aggregation (% of control) ([3]; preincubation 25 minutes): 57.3 ± 0.1 % of control | Platelet Aggregation (% of control) ([3]; preincubation 45 minutes): 0 % of control | CL inhibition (%) ([4]; 0.5 (unit uncertain) compound, U = undetectable): 21.3 ± 3.7% | CL inhibition (%) ([4]; 2.5 (unit uncertain) compound): 57.3 ± 1.9% | CL inhibition (%) ([4]; 5 (unit uncertain) compound): 87.4 ± 3.4% | CL inhibition (%) [5]: 0.9 ± 0.1% | log 1/C ([6]; C is the ED50 molar dose): 4.52

CCC(=O)Oc1ccccc1C(=O)O [Compound C3SA, n-propionylsalicylic acid]
Maximum solubility [1]: 6.3 mM | Hydrolysis rate constant (k) ([7]; Krebs-Henseleit buffer 0% BSA, U = Undetectable): 0.0147 ± 0.0025 hour^1 | Hydrolysis rate constant (k) ([7]; Krebs-Henseleit buffer 2% BSA): 0.0102 ± 0.0031 hour^1 | Platelet Aggregation (% of control) ([3]; preincubation 3 minutes): 0 % of control | Platelet Aggregation (% of control) ([3]; preincubation 5 minutes): 0 % of control | Platelet Aggregation (% of control) ([3]; preincubation 8 minutes): 0 % of control | Platelet Aggregation (% of control) ([3]; preincubation 10 minutes): 0 % of control | Platelet Aggregation (% of control) ([3]; preincubation 12 minutes): 0 % of control | Platelet Aggregation (% of control) ([3]; preincubation 15 minutes): 0 % of control | Platelet Aggregation (% of control) ([3]; preincubation 20 minutes): 0 % of control | Platelet Aggregation (% of control) ([3]; preincubation 25 minutes): 0 % of control | Platelet Aggregation (% of control) ([3]; preincubation 45 minutes): 0 % of control

O=C(O)c1ccccc1O [SA, 2-hydroxybenzoic acid, reference compound]
CL inhibition (%) ([4]; 2.5 (unit uncertain) compound): 52.9 ± 2.1% | CL inhibition (%) ([4]; 5 (unit uncertain) compound): 99.0 ± 1.0% | CL inhibition (%) [5]: 0.2 ± 0.0% | Hepatic extraction [8]: 0.05^c | EC50 ([6]; C is the ED50 molar dose, read-out: log 1/C (converted)): 72.4 µM | EC50 ([6]; molar dose for 50% reduction of LDH release compared to control, 30 min ischaemia, 100 min reperfusion, read-out: ED50 (the source's name)): 72.6 µM

Source: patent publication US6593365B1, “Diflunisal esters and related compounds” (The University of Queensland, priority 1997, dated 2003)
